“And” between values parts separate entries of the source, which are not always exact repeats. Equal values may be shown once. “Also recorded” adds a separate entry of the source.
Assays:
[1] = system: erythrocyte count, WBC count, PLT and Hb; assay: Haematological indicators (peripheral blood cells) after intravenous BBR; type: in vivo, SD rats; conditions: rats, i.v. 2.5 mg/kg, 5, 30 and 120 min, vs control group, n = 8
Description: After 48 SD rats were fed adaptively for a week, they were randomly divided into the control group and i.v. group (24 rats per group). Then they were further divided into 5, 30, and 120 min subgroups (n = 8). The SD rats in the i.v. group were intravenously administrated with 2.5 mg/kg BBR, while the control group was intravenously administrated with 1 mL 0.9% physiological saline solution. The blood samples were collected from the retroorbital sinus to K2EDTA-coated tubes, and used for the evaluation of haematological indicators including erythrocyte count, white blood cell (WBC) count, platelet count (PLT) and Hb.

[2] = Erythrocytes/plasma partition coefficient of BBR in vivo; design: species or system SD rats; conditions: for Ce (drug concentration in erythrocytes) / Ce/p (erythrocytes/plasma partition coefficient) / Cp (drug concentration in plasma): individual rats no. 1-6
Description: After six SD rats were intravenously administrated with BBR, blood samples were obtained from posterior orbital venous plexus to a heparinized tube at 5, 30, and 120 min, respectively, and then centrifuged at 2500 rpm for 10 min. After centrifugation, the upper layer (plasma) was collected, while the lower layer (blood cells) was washed three times with physiological saline and centrifuged for 5 min at 3000 rpm, and then resuspended in an appropriate volume of physiological saline, which was obtained as erythrocytes to perform the following procedure:
Piperine was added into the obtained plasma as the internal standard substance and then the samples were mixed with acetonitrile to precipitate protein. The mixtures were centrifuged at 8000 rpm for 10 min. The supernatants were collected and dried. The eluates were concentrated and re-dissolved for analysis.
The obtained erythrocytes were mixed with piperine and HC, and placed in a water bath at 60 °C for 6 h and then centrifuged at 12,000 rpm for 10 min. The supernatant was obtained and injected through a solid-phase extraction to separate drugs and impurities. The filtrate was collected, dried, and then re-dissolved with 200 μL acetonitrile for HPLC analysis (Chen et al., [2021]).

[3] = Hemolysis rate; type: cell-based, rats; conditions: rat, washed rat erythrocytes, 2% hematocrit suspension, 2% erythrocytes, 37 °C
Description: (§1) The whole blood was collected from rats by orbital plexus vein and transferred into a blood-collection tube containing ethylene diamine tetraacetic acid (EDTA) as an anticoagulant. The whole blood was centrifuged at 3000 rpm for 10 min. The plasma and the buffy coat in the supernatant were removed by aspiration, and erythrocytes were washed three times in cold phosphate buffer saline (PBS) and centrifuged for 10 min at 3000 rpm, and then resuspended in an appropriate volume of PBS.
(§2) The hematocrite of washed erythrocytes was adjusted by PBS to 2%. In 5-mL Eppendorf tubes, 1 mL of 2% erythrocytes was incubated with 1 mL of different concentrations of BBR hydrochloride at 37 °C for 2 h. The final concentrations of BBR hydrochloride in reaction system were 0.125, 0.250, 0.500, 1.000, 1.333, 1.500, 1.600 mg/mL, respectively. One mL of 2% erythrocytes incubated with 1 mL saline solution served as the […] group while 1 mL 2% erythrocytes incubated with 1 mL distilled water served as the […] one. After incubation, the erythrocytes suspension was centrifuged at 3000 rpm for 10 min. Then 150 μL supernatant was added to the 96-well plate. Three parallel wells were set for each group, and the absorbance at 545 nm of each sample well was measured by a microplate reader. The imaging system was employed to observe whether BBR induced hemolysis. The hemolysis rate was calculated according to the following formula: Hemolysis rate (%) = [(ODsample−ODnegative)/(ODpositive −ODnegative)] ×100%

[4] = system: 2% erythrocytes; assay: Hemolysis rate; type: cell-based, rats; conditions: 37 °C, 2 h
Description: as §1, §2

[5] = cited from earlier work

COc1ccc2cc3[n+](cc2c1OC)CCc1cc2c(cc1-3)OCO2 [BBR, Berberine]
Hb content [1]: significantly decreased; also recorded: significantly reduced | erythrocytes count [1]: significantly decreased; also recorded: significantly reduced | platelet count [1]: did not fluctuate obviously; also recorded: no significant effects | white blood count [1]: did not fluctuate obviously; also recorded: no significant effects | Ce (drug concentration in erythrocytes) ([2]; 5 min after 2.5 mg/kg): 1.313 µM and 0.039 µM and 0.000 µM and 0.375 µM and 0.862 µM and 0.584 µM | Ce/p (erythrocytes/plasma partition coefficient) ([2]; 5 min after 2.5 mg/kg): ∞ and 0.081 and 1.610 and 3.700 and 1.405 | Cp (drug concentration in plasma) ([2]; 5 min after 2.5 mg/kg): 0 nM and 489 nM and 233 nM and 416 nM | Ce (drug concentration in erythrocytes) ([2]; 30 min after 2.5 mg/kg): 0.044 µM and 0.212 µM and 0.026 µM and 0.176 µM and 0.539 µM | Ce/p (erythrocytes/plasma partition coefficient) ([2]; 30 min after 2.5 mg/kg): ∞ and 0.090 and 0.897 and 0.875 | Cp (drug concentration in plasma) ([2]; 30 min after 2.5 mg/kg): 0 nM and 282 nM and 197 nM and 616 nM | Ce (drug concentration in erythrocytes) ([2]; 120 min after 2.5 mg/kg): 0.225 µM and 0.000 µM and 0.132 µM | Ce/p (erythrocytes/plasma partition coefficient) ([2]; 120 min after 2.5 mg/kg): ∞ | Cp (drug concentration in plasma) ([2]; 120 min after 2.5 mg/kg): 0 nM and 1243 nM | Kp at 5 min ([2]; SD, rat, erythrocytes/plasma, iv, 2.5 mg/kg, 5 min after intravenous administration, rats, read-out: Ce/p value (group value)): 1.67 ± 1.5 | Kp at 30 min ([2]; SD, rat, erythrocytes/plasma, iv, 2.5 mg/kg, 30 min after intravenous administration, rats, read-out: Ce/p value (group value)): 0.62 ± 0.6 | hemolysis at 2 h, 1.5 mg/mL ([3]; BBR 1.50 mg/mL): 58.2% | hemolysis at 2 h, 1.6 mg/mL ([3]; BBR 1.60 mg/mL): 89.7% | hemolysis of the BBR-erythrocyte system ([4]; BBR 1.00 mg/mL): relatively stable without hemolysis | hemolysis of the erythrocyte ([4]; BBR concentration below 1.00 mg/mL): no hemolysis | concentration of BBR in the liver relative to plasma ([5]; background statement of the introduction, no reference given): about 10 fold | average concentration of BBR in liver relative to plasma ([5]; ref Yan et al., 2009, Tan et al., 2013, Yu et al., 2017): 10–30 times

Reference: paper PMC8920379, “The discovery of berberine erythrocyte-hemoglobin self-assembly delivery system: a neglected carrier underlying its pharmacokinetics” (Drug Delivery, 2022)
